Tests used:
[1] = molecular target: T1, enoyl-CoA hydratase encoded by phaJ (SEQ ID NO: 16) (Aeromonas caviae, UniProt O32472); experiment: Enzyme activity assay in the reverse (dehydration) direction, LC-MS; assay type: biochemical; conditions: 1 mM substrate, 5 μM purified enzyme, 10 mM ammonium acetate pH 8, 30° C., 1 h
T1 construct: His tag (C); made in house; host or cells: E. coli BL21[DE3]
T1 sequence (O32472 1-134): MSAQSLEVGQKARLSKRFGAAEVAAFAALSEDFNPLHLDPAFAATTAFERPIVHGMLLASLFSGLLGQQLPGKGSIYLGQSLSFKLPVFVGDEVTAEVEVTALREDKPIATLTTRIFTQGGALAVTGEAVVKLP
Method: (§1) The C-terminal his-tagged phaJ gene (SEQ ID NO: 16) from Aeromonas punctata was cloned into a pE23a expression vector under the T7 promoter. The expression vector was transformed into a BL21[DE3] E. coli host.
(§2) The resulting recombinant E. coli strain was cultivated in a 1L shake flask culture containing 100 mL Luria Broth media at 30° C., shaking at 200 rpm. The culture was induced using 1 mM IPTG for 2 h.
(§3) The pellet from each of the induced shake flask cultures was harvested by centrifugation. The pellet was resuspended in 20 mM HEPES (pH=7.2), 1 mM PMSF and 29U benzonase. The resuspended pellet was lysed via sonication. The cell debris was separated from the supernatant via centrifugation and filtered using a 0.2 μm filter.
(§4) The phaJ enzyme was purified from the supernatant using Ni-affinity chromatography and concentrated to 1.25 mg/mL.
(§5) The native enzyme activity assay in the reverse (dehydration) direction was undertaken in a buffer composed of 10 mM ammonium acetate (pH=8) and 1 mM of racemic 3-hydroxybutanoyl-CoA. The enzyme activity assay reaction was initiated by adding 5 μM of purified enoyl-CoA hydratase to the assay buffer containing the substrate and incubated at 30° C. for 1 h. The enzyme encoded by phaJ accepted 3-hydroxybutanoyl-CoA as substrate as confirmed via LC-MS.
as §5, with “non-native” for “native”, “3-methyl-3-hydroxypentanoyl-CoA.” for “racemic 3-hydroxybutanoyl-CoA.”, “3-methyl-3-hydroxypentanoyl-CoA” for “3-hydroxybutanoyl-CoA”
The non-native enzyme activity assay in the reverse (dehydration) direction was undertaken in a buffer composed of 10 mM ammonium acetate (pH=8) and 1 mM of 4-methyl-3-hydroxypentanoyl-CoA. […]

[2] = molecular target: T2, linalool dehydratase of SEQ ID NO: 13 (CBW30776.1) (Castellaniella defragrans, UniProt E1XUJ2); experiment: Whole cell assay of linalool dehydratase in recombinant E. coli, headspace GC-MS for isoprene; assay type: cell-based; conditions: 20 mM substrate, 160 mg/mL cells in M9 minimal media, 30° C., 48 h, GC-MS versus empty vector control
T2 construct: expressed in transfected cells; host or cells: E. coli BL21[DE3], whole cells
Method: A sequence encoding a C-terminal His-tag encoding the linalool dehydratase of SEQ ID NO: 13 (see FIGS. 9A-9F) was cloned into a pET15 expression vector under control of the T7 promoter such that a C-terminal HIS tagged enzyme could be produced. The expression vector was transformed into a BL21[DE3] E. coli host. The resulting recombinant E. coli strain was cultivated at 30° C. in a 1L shake flask culture containing 100 mL Auto-Induction media and antibiotic selection pressure, shaking at 220 rpm overnight. The pellet from the induced shake flask culture was harvested via centrifugation and used immediately in a whole cell assay.
The pellet was washed and resuspended in M9 minimal media to 160 mg/mL (wet weight) and dispensed into 10 mL crimped glass vials in triplicate. The substrate 3-methyl-3-buten-2-ol was added to a final concentration of 20 mM and incubated at 30° C. at 220 rpm for 48 h. The headspace of each glass vial was analysed by GC-MS for isoprene and compared to the empty vector control (undertaken in triplicate). The gene product of SEQ ID NO: 13 accepted 3-methyl-3-buten-2-ol as substrate as confirmed via GC-MS (see FIG. 15) and synthesized isoprene as reaction product.

[3] = system: mevalonate diphosphate decarboxylase of SEQ ID NO: 10 (CAR68209.1); experiment: GHMP superfamily enzyme activity assay, headspace GC-MS for isoprene; assay type: biochemical, Streptococcus pneumoniae; conditions: 10 mM substrate, 30 mM ATP, pH 7.0, 30° C., 24 h, GC-MS versus empty vector control
From the text: (§6) Each of the sequences encoding a C-terminal His-tagged gene encoding the mevalonate diphosphate decarboxylase of SEQ ID NOs: 8, 9, 10, and 11 respectively (see FIGS. 9A-9F) and the mevalonate 3-kinase of SEQ ID NO: 12 (see FIGS. 9A-9F) was cloned into a PD681-CH expression vector under control of the rhapBAD promoter, such that a C-terminal HIS tagged GHMP superfamily enzyme could be produced. Each expression vector was transformed into a BL21[DE3] E. coli host. The resulting recombinant E. coli strains were cultivated at 37° C. in a 5L shake flask culture containing 1L Luria Broth (LB) media and kanamycin antibiotic selection pressure, with shaking at 90 rpm. At an OD600 between 0.6 to 0.8, the culture was induced with L-rhamnose to a final concentration of 2 g/L. The cultures was induced for 6 h at 37° C. The pellets from the induced shake flask cultures were harvested via centrifugation and stored at −20° C. […]
(§7) Each enzyme activity assay was performed in an assay buffer composed of 100 mM HEPES (pH=7.0), 100 mM KCl, 30 mM MgCl2, 30 mM ATP, 2 mM DTT and 10 mM of 3-methyl-3-hydroxypent-4-enoate as substrate. […] The headspace of each glass vial was analysed by GC-MS for isoprene and compared to the empty vector control. […]

[4] = molecular target: T3, mevalonate diphosphate decarboxylase of SEQ ID NO: 11 (CAA66158.1) (Saccharomyces cerevisiae, UniProt P32377); experiment: as above; assay type: biochemical; conditions: 10 mM substrate, 30 mM ATP, pH 7.0, 30° C., 24 h, GC-MS versus empty vector control
T3 construct: His tag (C); made in house; host or cells: E. coli BL21[DE3]
T3 sequence (P32377 1-396): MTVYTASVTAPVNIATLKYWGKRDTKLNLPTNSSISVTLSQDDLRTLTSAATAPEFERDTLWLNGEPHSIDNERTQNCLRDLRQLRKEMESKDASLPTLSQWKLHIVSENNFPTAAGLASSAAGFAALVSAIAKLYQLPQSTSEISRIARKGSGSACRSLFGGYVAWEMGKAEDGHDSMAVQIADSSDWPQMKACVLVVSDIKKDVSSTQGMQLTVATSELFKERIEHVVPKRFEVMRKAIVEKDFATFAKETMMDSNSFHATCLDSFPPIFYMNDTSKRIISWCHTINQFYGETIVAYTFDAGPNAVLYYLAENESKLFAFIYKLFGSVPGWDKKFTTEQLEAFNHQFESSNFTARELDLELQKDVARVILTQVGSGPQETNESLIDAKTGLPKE
From the text: as §6, §7

[5] = molecular target: T4, mevalonate 3-kinase of SEQ ID NO: 12 (CAC12426.1) (Thermoplasma acidophilum, UniProt Q9HIN1); experiment: as above; assay type: biochemical; conditions: 10 mM substrate, 30 mM ATP, pH 7.0, 30° C., 24 h, GC-MS versus empty vector control
T4 construct: His tag (C); made in house; host or cells: E. coli BL21[DE3]
T4 sequence (Q9HIN1 1-318): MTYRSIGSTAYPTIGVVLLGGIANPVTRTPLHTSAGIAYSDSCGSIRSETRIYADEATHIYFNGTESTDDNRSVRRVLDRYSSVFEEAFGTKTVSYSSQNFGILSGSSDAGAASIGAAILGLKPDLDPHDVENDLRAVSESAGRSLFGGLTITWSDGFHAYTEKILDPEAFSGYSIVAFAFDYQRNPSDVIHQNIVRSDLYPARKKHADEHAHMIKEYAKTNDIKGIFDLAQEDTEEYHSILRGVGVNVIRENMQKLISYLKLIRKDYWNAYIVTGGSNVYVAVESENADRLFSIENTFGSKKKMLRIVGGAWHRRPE
From the text: as §6, §7

[6] = system: mevalonate diphosphate decarboxylase of SEQ ID NO: 9 (AHF01884.1); experiment: as above; assay type: biochemical, Thioalkalimicrobium aerophilum; conditions: 10 mM substrate, 30 mM ATP, pH 7.0, 30° C., 24 h, GC-MS versus empty vector control
From the text: as §6, §7

[7] = system: mevalonate diphosphate decarboxylase of SEQ ID NO: 8 (AAK33797.1); experiment: as above; assay type: biochemical, Streptococcus pyogenes; conditions: 10 mM substrate, 30 mM ATP, pH 7.0, 30° C., 24 h, GC-MS versus empty vector control
From the text: as §6, §7

[8] = molecular target: T1, enoyl-CoA hydratase encoded by phaJ (SEQ ID NO: 16); experiment: Native enzyme activity assay in the forward (hydration) direction, spectrophotometry at 263 nm; assay type: biochemical, Aeromonas punctata; conditions: for acceptance as substrate, hydration direction, inferred from reversibility of the enzyme reaction: inferred from the dehydration results and the favoured hydration direction
Method: as §1, §2, §3, §4
The native enzyme activity assay in the forward (hydration) direction was undertaken in a buffer composed of 10 mM ammonium acetate (pH=8) and 1 mM of crotonyl-CoA from Sigma-Aldrich at 30° C. The enzyme activity assay reaction was initiated by adding 0.4 μM of purified enoyl-CoA hydratase to the assay buffer containing the substrate. The enzyme encoded by phaJ accepted crotonyl-CoA as substrate as confirmed via spectrophotometry at 263 nm at 30° C.

T2 sequence (E1XUJ2 27-397): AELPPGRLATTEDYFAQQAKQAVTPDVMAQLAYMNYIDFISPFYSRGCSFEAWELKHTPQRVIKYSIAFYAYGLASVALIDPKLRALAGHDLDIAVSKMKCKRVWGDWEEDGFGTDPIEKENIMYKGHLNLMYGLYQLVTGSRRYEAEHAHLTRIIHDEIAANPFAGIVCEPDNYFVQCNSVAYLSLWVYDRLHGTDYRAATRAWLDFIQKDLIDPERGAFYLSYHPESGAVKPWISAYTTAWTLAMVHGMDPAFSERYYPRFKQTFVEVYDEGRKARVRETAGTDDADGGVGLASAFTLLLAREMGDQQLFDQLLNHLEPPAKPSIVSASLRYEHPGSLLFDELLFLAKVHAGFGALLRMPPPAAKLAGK

CC(O)CC(=O)SCCNC(=O)CCNC(=O)[C@H](O)C(C)(C)COP(=O)(O)OP(=O)(O)OC[C@H]1O[C@@H](n2cnc3c(N)ncnc32)[C@H](O)[C@@H]1OP(=O)(O)O (mixture of isomers) [3-hydroxybutanoyl-CoA, reference compound] was tested, and the “acceptance as substrate, reverse (dehydration) direction” value (“acceptance as substrate, reverse” below) [1] was “accepted”.
With C=C(C)C(C)O (stereo not drawn) [3-methyl-3-buten-2-ol] the “acceptance as substrate, isoprene as reaction product” value (“acceptance as substrate, isoprene” below) [2] was “accepted”.
In the case of C=CC(C)(O)CC(=O)O (stereo not drawn) [3-methyl-3-hydroxypent-4-enoate], the “acceptance as substrate, isoprene” value [3] is reported as “accepted”, the “acceptance as substrate, isoprene” value [4] is reported as “accepted” and the “acceptance as substrate, isoprene” value [5] is reported as “accepted”. For the same molecule, the “acceptance as substrate, isoprene” value [6] was “accepted” and the “acceptance as substrate, isoprene” value [7] was “accepted”.
For CCC(C)(O)CC(=O)SCCNC(=O)CCNC(=O)[C@H](O)C(C)(C)COP(=O)(O)OP(=O)(O)OC[C@H]1O[C@@H](n2cnc3c(N)ncnc32)[C@H](O)[C@@H]1OP(=O)(O)O (stereo partly drawn) [3-methyl-3-hydroxypentanoyl-CoA], the “acceptance as substrate, reverse” value [1] was “accepted”.
With CCC(C)=CC(=O)SCCNC(=O)CCNC(=O)[C@H](O)C(C)(C)COP(=O)(O)OP(=O)(O)OC[C@H]1O[C@@H](n2cnc3c(N)ncnc32)[C@H](O)[C@@H]1OP(=O)(O)O [3-methyl-pent-2-enoyl-CoA] the “acceptance as substrate, hydration direction, inferred from reversibility of the enzyme reaction” value [8] was “accepts”.
In the case of CC(C)C(O)CC(=O)SCCNC(=O)CCNC(=O)[C@H](O)C(C)(C)COP(=O)(O)OP(=O)(O)OC[C@H]1O[C@@H](n2cnc3c(N)ncnc32)[C@H](O)[C@@H]1OP(=O)(O)O (stereo partly drawn) [4-methyl-3-hydroxypentanoyl-CoA], the “acceptance as substrate, reverse” value [1] is reported as “accepted”.
CC(C)C=CC(=O)SCCNC(=O)CCNC(=O)[C@H](O)C(C)(C)COP(=O)(O)OP(=O)(O)OC[C@H]1O[C@@H](n2cnc3c(N)ncnc32)[C@H](O)[C@@H]1OP(=O)(O)O [4-methyl-pent-2-enoyl-CoA] was tested, and the “acceptance as substrate, hydration direction, inferred from reversibility of the enzyme reaction” value [8] was “accepts”.
In the case of C/C=C/C(=O)SCCNC(=O)CCNC(=O)[C@H](O)C(C)(C)COP(=O)(O)OP(=O)(O)OC[C@H]1O[C@@H](n2cnc3c(N)ncnc32)[C@H](O)[C@@H]1OP(=O)(O)O [crotonyl-CoA, reference compound], the “acceptance as substrate, forward (hydration) direction” value ([8]; 1 mM substrate, 0.4 μM purified enzyme, 10 mM ammonium acetate pH 8, 30° C., spectrophotometry at 263 nm) is reported as “accepted”.
